The structures appear in SMILES notation. Some results are limits rather than exact numbers.

This assay has as its target T1, human TLR8 (Homo sapiens, UniProt Q9NR97).
T1 sequence (Q9NR97 27-1041): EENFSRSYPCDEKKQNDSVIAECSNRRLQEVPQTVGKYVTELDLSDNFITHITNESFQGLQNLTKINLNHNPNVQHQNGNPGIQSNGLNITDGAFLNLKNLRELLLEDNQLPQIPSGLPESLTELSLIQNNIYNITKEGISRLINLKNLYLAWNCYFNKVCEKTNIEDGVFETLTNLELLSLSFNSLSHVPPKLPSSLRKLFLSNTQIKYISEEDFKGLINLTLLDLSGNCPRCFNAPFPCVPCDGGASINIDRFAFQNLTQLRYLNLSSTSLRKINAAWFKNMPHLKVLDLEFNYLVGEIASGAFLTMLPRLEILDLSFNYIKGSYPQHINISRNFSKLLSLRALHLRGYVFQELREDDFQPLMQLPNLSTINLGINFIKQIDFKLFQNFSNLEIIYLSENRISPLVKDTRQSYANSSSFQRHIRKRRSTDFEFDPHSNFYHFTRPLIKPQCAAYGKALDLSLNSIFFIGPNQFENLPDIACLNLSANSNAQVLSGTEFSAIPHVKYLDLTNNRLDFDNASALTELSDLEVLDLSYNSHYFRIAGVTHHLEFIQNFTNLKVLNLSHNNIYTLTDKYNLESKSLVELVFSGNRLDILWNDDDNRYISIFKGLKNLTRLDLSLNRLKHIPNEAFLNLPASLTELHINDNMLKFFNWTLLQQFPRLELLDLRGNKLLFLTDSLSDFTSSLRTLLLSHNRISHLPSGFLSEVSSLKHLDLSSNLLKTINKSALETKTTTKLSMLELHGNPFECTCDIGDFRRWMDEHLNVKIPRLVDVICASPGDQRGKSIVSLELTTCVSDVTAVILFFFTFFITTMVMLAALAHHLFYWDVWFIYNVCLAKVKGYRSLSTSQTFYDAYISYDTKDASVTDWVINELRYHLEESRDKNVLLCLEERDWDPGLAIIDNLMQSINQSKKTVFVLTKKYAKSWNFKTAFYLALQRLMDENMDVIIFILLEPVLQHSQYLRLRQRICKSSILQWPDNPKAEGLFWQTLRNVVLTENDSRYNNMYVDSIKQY
In words: HEK293-Blue-hTLR-8 cells assay (SEAP reporter, R848 stimulation). Type of assay: cell-based. Conditions: HEK293-Blue-hTLR8 cells, R848, 20 hrs; 0.003 is the lowest tested concentration; read-out: HEK/hTLR8 IC50. Summed up:
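Antagonist mode: HEK293-Blue-hTLR8 cells at 250,000–450,000 cells/mL in DMEM with 10% FBS were treated with serially diluted compound (1% DMSO final) plus R848 (10 µL of 60 µM stock) for 20 h at 37 °C. NF-κB/AP-1-driven SEAP in supernatant measured with QUANTI-Blue, 2 h at 37 °C, absorbance 620–655 nm.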
Regarding `C[C@@H]1CN(c2ccc(C#N)c3ncccc23)C[C@H](CN2CCc3cc(N4CCNCC4)ncc3C2)O1` [Example 70, 5-[(2R,6S)-2-methyl-6-[(6-piperazin-1-yl-3,4-dihydro-1H-2,7-naphthyridin-2-yl)methyl]morpholin-4-yl]quinoline-8-carbonitrile], the IC50 was less than 3 nM. For `C[C@@H]1CN(c2ccc3c(c2)CN(C[C@H]2CN(c4ccc(C#N)c5ncccc45)C[C@@H](C)O2)C3)C[C@H](C)N1` [Example 71, 5-[(2R,6S)-2-methyl-6-[[5-[(3R,5S)-3,5-dimethylpiperazin-1-yl]isoindolin-2-yl]methyl]morpholin-4-yl]quinoline-8-carbonitrile], the IC50 came out at 6 nM. As to `C[C@@H]1CN(c2ccc(C#N)c3ncccc23)C[C@H](CN2Cc3ccc(N4CC5COCC(C4)N5)cc3C2)O1` [Example 72, 5-[(2R,6S)-2-methyl-6-[[5-(3-oxa-7,9-diazabicyclo[3.3.1]nonan-7-yl)isoindolin-2-yl]methyl]morpholin-4-yl]quinoline-8-carbonitrile], the IC50 came to 9 nM. To `C[C@@H]1CN(c2ccc(C#N)c3ncccc23)C[C@H](CN2Cc3ccc(N4CCNCC4CO)cc3C2)O1` (stereo partly drawn) [Example 73, 5-[(2S,6R)-2-[[5-[2-(hydroxymethyl)piperazin-1-yl]isoindolin-2-yl]methyl]-6-methyl-morpholin-4-yl]quinoline-8-carbonitrile] belongs 10 nM. Consider `C[C@@H]1CN(c2ccc(C#N)c3ncccc23)C[C@H](CN2Cc3ccc(CN4CCCCC4)cc3C2)O1` [Example 74, 5-[(2R,6S)-2-methyl-6-[[5-(1-piperidylmethyl)isoindolin-2-yl]methyl]morpholin-4-yl]quinoline-8-carbonitrile], for which the IC50 was less than 3 nM. To `C[C@@H]1CN(c2ccc(C#N)c3ncccc23)C[C@H](CN2Cc3ccc(N4CCNCC4)cc3C(O)C2)O1` (stereo partly drawn) [Example 75, 5-[(2S,6R)-2-[(4-hydroxy-6-piperazin-1-yl-3,4-dihydro-1H-isoquinolin-2-yl)methyl]-6-methyl-morpholin-4-yl]quinoline-8-carbonitrile] belongs 4 nM; to `C[C@@H]1CN(c2ccc(C#N)c3ncccc23)C[C@H](CN2Cc3ccc(N4CCNCC4C(F)F)cc3C2)O1` (stereo partly drawn) [Example 76, 5-[(2S,6R)-2-[[5-[2-(difluoromethyl)piperazin-1-yl]isoindolin-2-yl]methyl]-6-methyl-morpholin-4-yl]quinoline-8-carbonitrile], 4 nM. As for `C[C@@H]1CN(c2ccc(C#N)c3ncccc23)C[C@H](CN2Cc3ccc(N4CC(N)C4)cc3C2)O1` [Example 77, 5-[(2S,6R)-2-[[5-(3-aminoazetidin-1-yl)isoindolin-2-yl]methyl]-6-methyl-morpholin-4-yl]quinoline-8-carbonitrile], the figure is 8 nM; as for `CC1CNCCN1c1ccc2c(c1)CN(C[C@H]1CN(c3ccc(C#N)c4ncccc34)C[C@@H](C)O1)C2` (stereo partly drawn) [Example 78, 5-[(2R,6S)-2-methyl-6-[[5-(2-methylpiperazin-1-yl)isoindolin-2-yl]methyl]morpholin-4-yl] quinoline-8-carbonitrile], less than 3 nM; as for `C[C@@H]1CN(c2ccc(C#N)c3ncccc23)C[C@H](CN2CCc3nc(N4CCNCC4)ccc3C2)O1` [Example 79, 5-[(2R,6S)-2-methyl-6-[(2-piperazin-1-yl-7,8-dihydro-5H-1,6-naphthyridin-6-yl)methyl]morpholin-4-yl]quinoline-8-carbonitrile], 4 nM. For `C[C@@H]1CN(c2ccc(C#N)c3ncccc23)C[C@H](CN2Cc3ccc(N4CCNCC4)nc3C2)O1` [Example 80, 5-[(2R,6S)-2-methyl-6-[(2-piperazin-1-yl-5,7-dihydropyrrolo[3,4-b]pyridin-6-yl)methyl]morpholin-4-yl]quinoline-8-carbonitrile], the IC50 was less than 3 nM.

The record behind these values is patent EP3623369A1, “NOVEL MORPHOLINYL AMINE COMPOUNDS FOR THE TREATMENT OF AUTOIMMUNE DISEASE” (F. Hoffmann-La Roche AG, priority 2018, dated 2020).
